Experimental data reported in article PMC8589628, “Characterization and Antimicrobial Studies of Iturin-Like and Bogorol-Like Lipopeptides From Brevibacillus spp. Strains GI9 and SKDU10” (Frontiers in Microbiology, 2021).
Like-named read-outs stand apart in the source and are kept apart here. Peptide text beside a SMILES is read from it. * marks the point of attachment. X1 = CC(C)CCCCCCCCCCCCC(=O)*

What was measured:
[1] = Critical micelle concentration by tensiometer; type: physicochemical; conditions: surface tension by tensiometer at room temperature, 0.1 to 1000 μg/ml, mean of triplicate experiments
Experimental: Collapse Drop Assay (CDA) was performed as mentioned earlier ([Sharma et al., 2020]). To a well of 96 well microtiter plate, 2 μl mineral oil was added and equilibrated at 37°C for 24 h. Purified lipopeptide (5 μl of 10 μg/ml stock) was applied to the top of oil droplet and its shape was observed after 1 min with a magnifying glass for collapse and spread due to reduction in surface tension. Water and triton X-100 served as controls ([Youssef et al., 2004]). To determine critical micelle concentration (CMC), different concentrations of purified lipopeptides were prepared and surface tension was measured on a tensiometer (KRUSS K10T, Germany) at room temperature. The values for CMC were estimated by plotting surface tension as a function of concentration of lipopeptides. A point of intersection was located between the pre and post CMC data plot. The mean value of triplicate experiments was used to increase the accuracy. Concentrations ranging from 0.1 to 1000 μg/ml were used to determine surface tension on a tensiometer.

[2] = Effect of temperature and pH on activity (well-diffusion assay); type: physicochemical
Experimental: Sensitivities of purified antimicrobial compounds to temperature, pH, and hydrolytic enzymes were confirmed by performing well-diffusion assay. pH stability was determined by adjusting the pH of aliquots of purified antimicrobial compounds from 2.0 to 12.0 (using 10 mM HCl or NaOH) and incubating at room temperature for 4 h. The residual activity was measured after neutralizing the sample to pH 7.0. To determine temperature susceptibility, antimicrobial compounds were incubated at different temperatures ranging from 37 to 100°C for 1 h and 121°C for 15 min, and then residual antimicrobial activity was determined after cooling the samples to room temperature. Similarly, proteolytic enzymes such as trypsin and proteinase K were used at three different concentrations (0.1, 1.0, and 5.0 mg/ml) to ensure their effect on the activity of antimicrobial compounds. The enzyme solutions were prepared in 50 mM phosphate buffer (pH 7.0). All reactions were performed at 37°C for 6 h followed by deactivation of the enzyme by heating the solution in boiling water for 5 min before performing the activity assay.

C. albicans MTCC 183 = assay: Time kill assay; type: cell-based, Candida albicans; conditions: for Time to complete killing: C. albicans MTCC 183, 5X MIC, in PBS, CFU count
Experimental: (§1) Killing kinetics of purified compounds was performed using cells of S. aureus MTCC 1430, V. cholerae MTCC 3904, and C. albicans MTCC 183. Test strains were grown to obtain OD between 0.2 and 0.3 (OD 600 nm), centrifuged, and washed thrice with sterile PBS. Pellets were suspended in PBS and treated with different concentrations of active compounds. Cells after treatment were washed, resuspended, and serially diluted cell suspensions were plated on NA plates. After overnight incubation at 37°C, CFU were recorded ([Singh et al., 2021]).

S. aureus MTCC 1430 [3] = assay: Time kill assay; type: cell-based, Staphylococcus aureus; conditions: in PBS, CFU count
Experimental: as §1

S. aureus MTCC 1430 [4] = assay: TEM of treated cells; type: cell-based, Staphylococcus aureus; conditions: S. aureus MTCC 1430, 1X MIC, 30 min, 37°C
Experimental: Effect of antimicrobial compounds on cell membrane of test organisms was determined by transmission electron microscopy (TEM). Test strains, S. aureus MTCC 1430, V. cholerae MTCC 3904, and C. albicans MTCC 183 were cultured to mid-log phase, washed, and re-suspended in 1X PBS (OD 600 nm 0.2). The cell suspensions were incubated (37°C) with 1X MIC of purified antimicrobial compounds for 30 min. Cells after treatment were centrifuged, washed twice with PBS. For TEM, cells of S. aureus MTCC 1430 and V. cholerae MTCC 3904 were subjected to negative stain with 0.1% (w/v) sodium phosphotungstate (PTA, Sigma, United States) in water for 1 min, on a carbon-coated copper grid with 300 mesh (Polyscience, United States) and observed under transmission electron microscope (JEOL JEM 2100, United States) ([Raje et al., 2006]). For SEM, C. albicans MTCC 183 cells were immobilized on poly L-lysine glazed glass slides and incubated at 4°C for 2 h. Cells were fixed using Karnovsky’s fixative and serially dehydrated with gradient of ethanol, freeze dried, and platinum coated. ZEISS EV040 (United States) scanning electron microscope was employed to photograph the cells ([Raje et al., 2006]). Spores of A. brassicicola MTCC 2102 were treated with 2X MIC of lipopeptides for 2 h and observed under phase-contrast microscope (Nickon H600L, Japan). […]

[5] = tested on: L. monocytogenes MTCC 839; type: cell-based, Listeria monocytogenes
Experimental: The antimicrobial activity of HPLC purified compounds was determined against various test strains including S. aureus MTCC 1430, Vibrio cholera MTCC 3904, Bacillus subtilis MTCC 121, Listeria monocytogenes MTCC 839, C. albicans MTCC 183, C. albicans MTCC 1637, C. albicans MTCC 227, C. tropicalis MTCC 184, C. glabrata MTCC 3019, and C. inconspicua MTCC 1074. Antimicrobial activity was also tested against clinical Candida strains and phytopathogenic fungi viz. Fusarium moniliforme MTCC 158, Alternaria brassicicola MTCC 2102 and Colletotrichum acutatum MTCC 1037. Bacterial and Candida test strains were grown in NB and yeast malt broth (YMB), respectively. Fungal test strains were grown in potato dextrose broth (PDB). Minimum inhibitory concentrations (MICs) of purified compounds were evaluated against test organisms by using a microtiter plate dilution assay. Mid-log-phase test strains (5 × 10^5 CFU/ml) were incubated in a 96-well plate with different concentrations of the lipopeptides for 24–48 h at 37°C (final volume of 200 μl). OD was measured at 600 nm after 24 and 48 h for bacteria and yeast, respectively, using an ELISA microplate reader (Thermo Scientific, United States). MIC against phytopathogenic fungi was determined using the 96-well microtiter plate method ([Sharma et al., 2020]).

[6] = Temperature 37 °C, 1h (pH 7.0), well-diffusion assay
[7] = Temperature 60 °C, 1h (pH 7.0), well-diffusion assay
[8] = Temperature 80 °C, 1h (pH 7.0), well-diffusion assay
[9] = Temperature 100 °C, 1h (pH 7.0), well-diffusion assay
[10] = Temperature 121 °C, 15 min (304 kPa) (pH 7.0), well-diffusion assay
[11] = pH 2.0, 4h/ 25 °C, neutralised to pH 7.0 before well-diffusion assay
[12] = pH 4.0, 4h/ 25 °C, neutralised to pH 7.0 before well-diffusion assay
[13] = pH 6.0, 4h/ 25 °C, neutralised to pH 7.0 before well-diffusion assay
[14] = pH 7.0, 4h/ 25 °C, well-diffusion assay
[15] = pH 8.0, 4h/ 25°C, neutralised to pH 7.0 before well-diffusion assay
[16] = pH 10.0, 4h/ 25 °C, neutralised to pH 7.0 before well-diffusion assay
[17] = pH 12.0, 4h/ 25 °C, neutralised to pH 7.0 before well-diffusion assay

Compound | CMC (critical micelle concentration) [1] [µg/mL] | Residual activity [2, 6] [%] | Residual activity [2, 7] [%] | Residual activity [2, 8] [%] | Residual activity [2, 9] [%] | Residual activity [2, 10] [%] | Residual activity [2, 11] [%] | Residual activity [2, 12] [%] | Residual activity [2, 13] [%] | Residual activity [2, 14] [%] | Residual activity [2, 15] [%] | Residual activity [2, 16] [%] | Residual activity [2, 17] | Time to complete killing (C. albicans MTCC 183) [h] | Time to complete reduction in population (S. aureus MTCC 1430 [3]; S. aureus MTCC 1430, 1X MIC) [min] | Time to complete reduction in population (S. aureus MTCC 1430 [3]; S. aureus MTCC 1430, 2X MIC) [min] | Effect on cells (TEM) (S. aureus MTCC 1430 [4]) | further results
CC(C)CCCCCCCCCCCCC(=O)N[C@H](C(=O)NCC(=O)N[C@@H](C)C(=O)N[C@@H](CO)C(=O)N[C@@H](Cc1c[nH]cn1)C(=O)N[C@@H](CCC(N)=O)C(=O)N[C@@H](CCC(N)=O)C(=O)O)[C@@H](C)O [ILL] (X1-TGASHQQ-OH; N-terminus assumed) | 90 | 100 | 100 | 100 | 100 | 100 | 43 | 95.5 | 100 | 100 | 100 | 100 | Nil | 4 | ≤ 60 | ≤ 30 | lysis with accumulation of debris on cell surface, altered morphology, and shrinkage | Reduction in growth (C. albicans MTCC 183; C. albicans MTCC 183, 1X MIC, 4 h): 2 log; MIC value ([5]; MTCC 839, 24 h): 200 to 220 µg/mL
Dhb-Tyr-Orn-Ile-Val-Val-Lys-Val-Leu-Asp-Val-Glu [BLL, bogorol like lipopeptide purified from Brevibacillus sp. strain SKDU10; 12 amino acids and C17 hydroxy fatty acid side chain] | 110 | 100 | 100 | 100 | 100 | 100 | 52 | 100 | 100 | 100 | 100 | 94.3 | Nil | ≤ 4 | ≤ 30 | ≤ 30 | irregularities in structure with rupturing of cell wall and lysis | Thermostability (activity after exposure to 121°C for 15 min, autoclaving) [2]: thermostable; Complete killing of cells within 4 h (C. albicans MTCC 183; C. albicans MTCC 183, 1X MIC): not observed; Complete killing of cells within 4 h (C. albicans MTCC 183; C. albicans MTCC 183, 2X MIC): not observed; MIC value ([5]; L. monocytogenes MTCC 839, NB, 5 × 10^5 CFU/ml, 37°C, OD 600 nm after 24 h, 10–550 μg/ml in 5 μg/ml increments): 230 to 240 µg/mL
